Measurements published in patent US20250034135A1, “ANTI-APOPTOTIC PROTEIN BCL-2 INHIBITOR, PHARMACEUTICAL COMPOSITION AND USES THEREOF” (HANGZHOU HEALZEN THERAPEUTICS CO., LTD., priority 2021, published 2025).

Target: BCL2 (Homo sapiens (Human), UniProt P10415)
Experiment: Molecular level activity test of anti-apoptotic protein BCL2 (HTRF, binding to Bim peptide)
Details: HTRF, binding of BCL2 to Bim peptide; read-out: BCL2 nM (inhibitory activity, IC50)
Summary of the method: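 HTRF readout; His-BCL2 + biotin-BIM peptide + cpd (2% DMSO in compound addition), 1 h; then anti-His + SA-XL665 detection reagents, 4 h RT.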

BCL2, sequence (P10415 whole entry): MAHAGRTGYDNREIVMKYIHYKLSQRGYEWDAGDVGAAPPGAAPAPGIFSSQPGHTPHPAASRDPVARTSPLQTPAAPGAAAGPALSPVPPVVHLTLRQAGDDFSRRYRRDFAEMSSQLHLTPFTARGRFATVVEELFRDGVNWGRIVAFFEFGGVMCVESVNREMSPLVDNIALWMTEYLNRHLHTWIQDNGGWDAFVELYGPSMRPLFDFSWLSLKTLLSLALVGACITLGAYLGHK

Row | IC50 | Structure (SMILES)
1 | < 10 nM | COc1ccc(CN2CCN(C3CC4(CCN(c5cc(Oc6cnc7[nH]ccc7c6)c(C(=O)NS(=O)(=O)c6ccc(NCC7CCOCC7)c([N+](=O)[O-])c6)cc5F)CC4)C3)C(c3ccccc3C(C)C)C2)cc1 (stereo not drawn) [compound 064, 2-((1H-pyrrolo[2,3-b]pyrid-5-yl)oxy)-5-fluoro-4-(2-(2-(2-isopropylphenyl)-4-(4-methoxybenzyl)piperazin-1-yl)-7-azaspiro[3.5]non-7-yl)-N-((3-nitro-4-(((tetrahydro-2H-pyran-4-yl)methyl)amino)phenyl)sulfonyl)benzamide]
2 | < 10 nM | COc1cc(CN2CCN(C3CC4(CCN(c5ccc(C(=O)NS(=O)(=O)c6cc([N+](=O)[O-])c(NCC7(F)CCOCC7)c7c6OCO7)c(Oc6cnc7[nH]ccc7c6)c5)CC4)C3)[C@H](c3ccccc3C(C)C)C2)ccc1C1CC1 [compound 173, (R)-2-((1H-pyrrolo[2,3-b]pyrid-5-yl)oxy)-4-(2-(4-(4-cyclopropyl-3-methoxybenzyl)-2-(2-isopropylphenyl)piperazin-1-yl)-7-azaspiro[3.5]non-7-yl)-N-((7-(((4-fluorotetrahydro-2H-pyran-4-yl)methyl)amino)-6-nitrobenzo[d][1,3]dioxocyclopent-4-yl)sulfonyl)benzamide]
3 | < 10 nM | COc1ccc(CN2CCN(C3CC4(CCN(c5cc(Oc6cnc7[nH]ccc7c6)c(C(=O)NS(=O)(=O)c6cc([N+](=O)[O-])c(NC[C@H]7CC[C@](C)(O)CC7)c7occc67)cn5)CC4)C3)[C@H](c3ccccc3C(C)C)C2)cc1 [compound 139, 4-((1H-pyrrolo[2,3-b]pyrid-5-yl)oxy)-N-((7-((((1r, 4r)-4-hydroxy-4-methylcyclohexyl)methyl)amino)-6-nitrobenzofuran-4-yl)sulfonyl)-6-(2-((R)-2-(2-isopropylphenyl)-4-(4-methoxybenzyl)piperazin-1-yl)-7-azaspiro[3.5]non-7-yl) nicotinamide]
4 | < 10 nM | CC(C)c1ccccc1[C@@H]1CN(Cc2cnn(C)c2)CCN1C1CC2(CCN(c3cc(Oc4cnc5[nH]ccc5c4)c(C(=O)NS(=O)(=O)c4ccc(NC[C@H]5CC[C@](C)(O)CC5)c([N+](=O)[O-])c4)cc3F)CC2)C1 [compound 229, 2-((1H-pyrrolo[2,3-b]pyrid-5-yl)oxy)-5-fluoro-N-((4-((((1r, 4r)-4-hydroxy-4-methylcyclohexyl)methyl)amino)-3-nitrophenyl)sulfonyl)-4-(2-((R)-2-(2-isopropylphenyl)-4-((1-methyl-1H-pyrazole-4-yl)methyl)piperazin-1-yl)-7-azaspiro[3.5]non-7-yl)benzamide]
5 | < 10 nM | COc1ccc(CN2CCN(C3CC4(CCN(c5cc(Oc6cnc7[nH]cc(F)c7c6)c(C(=O)NS(=O)(=O)c6ccc(NC[C@H]7CC[C@](C)(O)CC7)c([N+](=O)[O-])c6)cc5F)CC4)C3)C(c3ccccc3C(C)C)C2)cc1 (stereo partly drawn) [compound 060, 5-fluoro-2-((3-fluoro-1H-pyrrolo[2,3-b]pyrid-5-yl)oxy)-N-((4-((((1r,4r)-4-hydroxy-4-methylcyclohexyl)methyl)amino)-3-nitrophenyl)sulfonyl)-4-(2-(2-(2-isopropylphenyl)-4-(4-methoxybenzyl)piperazin-1-yl)-7-azaspiro[3.5]non-7-yl)benzamide]
6 | < 10 nM | COc1ccc(CN2CCN(C3CC4(CCN(c5cc(Oc6cnc7[nH]ccc7c6)c(C(=O)NS(=O)(=O)c6cc([N+](=O)[O-])c(NCC7(F)CCOCC7)c7oc(C)cc67)cc5F)CC4)C3)[C@H](c3ccccc3C(C)C)C2)cc1 [compound 111, (R)-2-((1H-pyrrolo[2,3-b]pyrid-5-yl)oxy)-5-fluoro-N-((7-(((4-fluorotetrahydro-2H-pyran-4-yl)methyl)amino)-2-methyl-6-nitrobenzofuran-4-yl)sulfonyl)-4-(2-(2-(2-isopropylphenyl)-4-(4-methoxybenzyl)piperazin-1-yl)-7-azaspiro[3.5]non-7-yl)benzamide]
